Measured values published in publication PMC6483092 (ACS infectious diseases, 2019).

How the values were obtained:
[1] = system: HIV-1IIIB (wild-type); conditions: HIV-1IIIB strain (wild-type virus)
[2] = system: HIV-1; conditions: as described in the literature; cited from earlier work

Compound | IC50 times lower than enfuvirtide [1] [times] | IC90 times lower than enfuvirtide [1] [times] | IC50 [2] [nM]
CC[C@H](C)[C@H](NC(=O)[C@H](CC(C)C)NC(=O)[C@H](CO)NC(=O)[C@H](Cc1c[nH]cn1)NC(=O)[C@@H](NC(=O)[C@H](CC(C)C)NC(=O)[C@H](CO)NC(=O)[C@@H](NC(=O)[C@H](Cc1ccc(O)cc1)NC(=O)[C@H](CC(N)=O)NC(=O)[C@H](CC(N)=O)NC(=O)[C@@H](NC(=O)[C@H](CCC(=O)O)NC(=O)[C@H](CCCNC(=N)N)NC(=O)[C@H](CC(=O)O)NC(=O)[C@H](Cc1c[nH]c2ccccc12)NC(=O)[C@H](CCC(=O)O)NC(=O)[C@H](CCSC)NC(=O)[C@H](Cc1c[nH]c2ccccc12)NC(C)=O)[C@@H](C)CC)[C@@H](C)O)[C@@H](C)CC)C(=O)N[C@@H](CCC(=O)O)C(=O)N[C@@H](CCC(=O)O)C(=O)N[C@@H](CO)C(=O)N[C@@H](CCC(N)=O)C(=O)N[C@@H](CC(N)=O)C(=O)N[C@@H](CCC(N)=O)C(=O)N[C@@H](CCC(N)=O)C(=O)N[C@@H](CCC(=O)O)C(=O)N[C@@H](CCCCN)C(=O)N[C@@H](CC(N)=O)C(=O)N[C@@H](CCC(=O)O)C(=O)N[C@@H](CCC(N)=O)C(=O)N[C@@H](CCC(=O)O)C(=O)N[C@@H](CC(C)C)C(=O)N[C@@H](CC(C)C)C(=O)NCC(=O)N[C@@H](CO)C(=O)NCC(=O)N[C@@H](CSCC(=O)O[C@H]1CC[C@@]2(C)C(=CC[C@H]3[C@@H]4CC[C@H]([C@H](C)CCCC(C)(C)O)[C@@]4(C)CC[C@@H]32)C1)C(N)=O [C34-HC] | 25 | 40 | 
WMEWDREINNYTSL-IHSLIEESQNQQEKNEQELL [C34] |  |  | 1.4
